{
  "source": "ChEMBL document CHEMBL1201862",
  "about": "“PubChem BioAssay data set” (2004)",
  "key": {"[1]": {"molecular_target": "Nuclear receptor subfamily 5 group A member 2 (Homo sapiens, UniProt O00482)", "sequence (O00482 whole entry)": "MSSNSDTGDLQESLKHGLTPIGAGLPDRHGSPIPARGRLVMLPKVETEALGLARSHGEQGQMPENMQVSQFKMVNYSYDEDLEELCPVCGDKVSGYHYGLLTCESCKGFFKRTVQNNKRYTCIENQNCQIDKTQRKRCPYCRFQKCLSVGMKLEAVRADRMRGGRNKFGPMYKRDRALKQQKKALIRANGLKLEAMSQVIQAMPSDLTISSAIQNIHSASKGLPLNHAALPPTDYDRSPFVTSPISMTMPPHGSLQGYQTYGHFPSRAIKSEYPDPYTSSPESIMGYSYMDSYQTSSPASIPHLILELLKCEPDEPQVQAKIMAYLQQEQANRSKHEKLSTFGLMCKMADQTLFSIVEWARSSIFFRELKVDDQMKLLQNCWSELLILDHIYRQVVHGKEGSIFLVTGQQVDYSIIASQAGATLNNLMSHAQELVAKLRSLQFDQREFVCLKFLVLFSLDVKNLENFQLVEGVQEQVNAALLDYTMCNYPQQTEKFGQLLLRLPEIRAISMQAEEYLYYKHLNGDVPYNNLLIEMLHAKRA", "type": "functional, cell-based"}, "[2]": {"test": "nonselective StAR promoter luciferase inhibitors – cell-based, luminescence, luciferase reporter, counter-screen for LRH-1 inverse agonist project, dose response (AID 651969)", "type": "functional"}, "Steroidogenic factor 1": {"molecular_target": "Steroidogenic factor 1 (Homo sapiens, UniProt Q13285)", "sequence (Q13285 whole entry)": "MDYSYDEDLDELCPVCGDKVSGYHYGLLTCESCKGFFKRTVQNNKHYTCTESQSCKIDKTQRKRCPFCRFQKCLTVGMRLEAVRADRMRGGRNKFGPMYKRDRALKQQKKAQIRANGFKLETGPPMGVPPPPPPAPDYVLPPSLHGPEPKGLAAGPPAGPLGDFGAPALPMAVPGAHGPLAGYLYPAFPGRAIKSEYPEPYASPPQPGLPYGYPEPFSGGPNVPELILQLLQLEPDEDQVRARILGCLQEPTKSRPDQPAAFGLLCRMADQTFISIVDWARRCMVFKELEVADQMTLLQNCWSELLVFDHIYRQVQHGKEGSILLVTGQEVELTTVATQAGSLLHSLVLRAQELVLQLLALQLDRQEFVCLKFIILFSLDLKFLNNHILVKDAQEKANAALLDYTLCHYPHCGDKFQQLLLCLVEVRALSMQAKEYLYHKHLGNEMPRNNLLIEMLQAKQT", "test": "Counterscreen for inverse agonists of the liver receptor homolog-1 (LRH-1; NR5A2): Luminescence-based cell-based high throughput dose response assay to identify inverse agonists of the Steroidogenic Factor 1 Nuclear Receptor (SF1; NR5A1).", "type": "functional"}, "[3]": {"molecular_target": "T1, Low molecular weight phosphotyrosine protein phosphatase (Homo sapiens, UniProt P24666)", "T1 sequence (P24666 whole entry)": "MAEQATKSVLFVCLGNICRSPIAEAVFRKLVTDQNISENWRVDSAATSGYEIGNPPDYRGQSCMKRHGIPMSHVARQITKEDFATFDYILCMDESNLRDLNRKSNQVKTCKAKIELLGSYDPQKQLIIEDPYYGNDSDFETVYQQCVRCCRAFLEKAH", "type": "functional", "details": "read-out: IC50_Mean"}, "[4]": {"molecular_target": "Dual specificity tyrosine-phosphorylation-regulated kinase 1A (Rattus norvegicus, UniProt Q63470)", "type": "biochemical, Homo sapiens"}, "Fatty acid synthase [5]": {"molecular_target": "T2, Fatty acid synthase (Homo sapiens, UniProt P49327)", "T2 sequence (P49327 whole entry)": "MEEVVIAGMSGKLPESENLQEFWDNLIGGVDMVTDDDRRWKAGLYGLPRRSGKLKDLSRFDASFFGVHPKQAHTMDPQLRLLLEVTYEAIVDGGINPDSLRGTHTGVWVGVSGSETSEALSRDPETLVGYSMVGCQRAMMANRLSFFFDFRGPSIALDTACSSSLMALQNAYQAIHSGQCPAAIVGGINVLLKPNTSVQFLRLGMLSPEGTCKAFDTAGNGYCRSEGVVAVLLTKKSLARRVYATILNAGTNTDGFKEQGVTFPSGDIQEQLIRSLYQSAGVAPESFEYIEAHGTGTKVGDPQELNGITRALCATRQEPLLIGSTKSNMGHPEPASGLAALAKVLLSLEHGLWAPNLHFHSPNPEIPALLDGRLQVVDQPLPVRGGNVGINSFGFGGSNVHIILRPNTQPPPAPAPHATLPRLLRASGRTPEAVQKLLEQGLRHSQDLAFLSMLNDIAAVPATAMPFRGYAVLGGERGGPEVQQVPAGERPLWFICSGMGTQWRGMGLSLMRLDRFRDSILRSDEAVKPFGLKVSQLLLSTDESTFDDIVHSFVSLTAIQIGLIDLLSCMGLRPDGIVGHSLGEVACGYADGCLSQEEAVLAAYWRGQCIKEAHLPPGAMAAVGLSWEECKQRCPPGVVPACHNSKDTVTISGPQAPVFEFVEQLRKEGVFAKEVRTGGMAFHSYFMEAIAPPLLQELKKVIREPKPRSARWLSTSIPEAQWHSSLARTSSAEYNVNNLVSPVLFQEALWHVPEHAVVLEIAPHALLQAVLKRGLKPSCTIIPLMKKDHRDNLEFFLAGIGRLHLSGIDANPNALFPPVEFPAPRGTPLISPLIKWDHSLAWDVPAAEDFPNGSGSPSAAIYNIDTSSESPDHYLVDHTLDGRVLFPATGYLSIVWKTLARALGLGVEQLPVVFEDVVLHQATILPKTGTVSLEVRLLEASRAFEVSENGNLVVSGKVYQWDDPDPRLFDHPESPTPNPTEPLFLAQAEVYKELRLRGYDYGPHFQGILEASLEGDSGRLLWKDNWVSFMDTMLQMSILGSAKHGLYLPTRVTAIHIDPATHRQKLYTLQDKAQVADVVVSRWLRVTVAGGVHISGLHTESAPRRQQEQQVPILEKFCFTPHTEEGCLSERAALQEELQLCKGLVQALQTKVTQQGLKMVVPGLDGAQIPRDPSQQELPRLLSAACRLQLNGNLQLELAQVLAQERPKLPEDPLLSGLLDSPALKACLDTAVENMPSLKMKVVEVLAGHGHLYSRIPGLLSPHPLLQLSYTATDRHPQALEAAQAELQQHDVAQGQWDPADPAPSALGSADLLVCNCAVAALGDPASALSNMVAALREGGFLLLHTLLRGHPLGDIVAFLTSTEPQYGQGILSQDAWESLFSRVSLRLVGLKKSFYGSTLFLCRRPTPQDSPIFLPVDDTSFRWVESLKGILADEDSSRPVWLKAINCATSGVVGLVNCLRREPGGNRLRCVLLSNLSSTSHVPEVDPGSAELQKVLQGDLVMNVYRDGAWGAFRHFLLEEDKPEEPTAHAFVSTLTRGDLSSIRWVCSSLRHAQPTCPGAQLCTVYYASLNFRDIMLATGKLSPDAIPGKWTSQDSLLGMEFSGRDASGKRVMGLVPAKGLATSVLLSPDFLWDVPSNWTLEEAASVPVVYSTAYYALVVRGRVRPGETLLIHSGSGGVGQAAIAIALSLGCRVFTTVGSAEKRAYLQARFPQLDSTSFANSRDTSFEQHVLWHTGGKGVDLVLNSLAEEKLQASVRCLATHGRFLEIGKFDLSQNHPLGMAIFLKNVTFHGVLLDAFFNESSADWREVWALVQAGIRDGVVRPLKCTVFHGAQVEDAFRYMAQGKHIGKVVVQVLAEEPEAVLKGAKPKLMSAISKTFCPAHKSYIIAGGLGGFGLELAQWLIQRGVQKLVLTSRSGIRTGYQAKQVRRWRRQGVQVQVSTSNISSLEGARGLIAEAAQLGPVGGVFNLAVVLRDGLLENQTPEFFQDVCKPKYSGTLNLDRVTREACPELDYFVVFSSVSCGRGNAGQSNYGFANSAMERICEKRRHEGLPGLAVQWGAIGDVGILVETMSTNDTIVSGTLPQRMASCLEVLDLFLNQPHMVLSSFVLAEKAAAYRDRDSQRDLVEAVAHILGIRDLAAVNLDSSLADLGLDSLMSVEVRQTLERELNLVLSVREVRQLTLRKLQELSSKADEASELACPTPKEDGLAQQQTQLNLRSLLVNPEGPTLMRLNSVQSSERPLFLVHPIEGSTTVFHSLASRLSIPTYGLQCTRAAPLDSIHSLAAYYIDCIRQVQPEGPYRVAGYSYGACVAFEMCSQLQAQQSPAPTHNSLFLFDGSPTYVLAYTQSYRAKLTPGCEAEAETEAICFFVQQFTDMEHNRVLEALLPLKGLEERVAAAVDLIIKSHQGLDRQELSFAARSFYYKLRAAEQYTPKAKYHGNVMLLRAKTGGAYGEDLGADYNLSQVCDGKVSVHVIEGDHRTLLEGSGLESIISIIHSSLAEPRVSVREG", "test": "inhibition of human FAS-TE enzyme activity – biochemical, kinetic fluorescence intensity, dose response (AID 624326);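 further: rate of fluorescence rise from hydrolysis of a fluorogenic O-methyl fluorescein ester substrate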", "type": "functional"}, "Fatty acid synthase [6]": {"molecular_target": "T2, Fatty acid synthase", "test": "inhibition of human FAS-TE enzyme activity – biochemical, endpoint fluorescence intensity, uHTS hits, dose response (AID 624327);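 further: fluorescence from hydrolysis of an O-methyl fluorescein acyl ester substrate by the enzyme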", "type": "functional"}, "[7]": {"test": "NIH-3T3 fibroblast cytotoxicity, dose response, cytotoxicity control, cell-based, fluorescence, Alamar Blue, secondary assay (AID 2327);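 further: NIH-3T3 mouse fibroblasts cultured with fluconazole at 8 µg/mL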", "type": "functional"}, "[8]": {"test": "fluconazole-exposed Candida albicans growth modulators – fluorescence, retest, confirmation (AID 2467)", "type": "functional, cell-based"}, "BJ [9]": {"system": "BJ", "test": "BJ-TERT-LT-ST fibroblast viability loss – cell-based, RAS-independent, luminescence, dose response (AID 1935);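 further: BJ fibroblasts immortalized with TERT plus LT and ST oncogenes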", "type": "functional", "details": "Homo sapiens"}, "BJ [10]": {"system": "BJ", "test": "BJ-TERT fibroblast viability loss – cell-based, RAS-independent, luminescence, dose response (AID 1933)", "type": "functional", "details": "Homo sapiens"}, "BJ [11]": {"system": "BJ", "test": "cells", "type": "functional, cell-based", "details": "Homo sapiens"}, "[12]": {"test": "A Cell Based Secondary Assay To Explore Cytotoxicity of Compounds that Sensitize Mycobacterium Tuberculosis to Beta-Lactam Antibiotics.", "type": "functional"}, "[13]": {"test": "DRD fibroblast viability loss – cell-based, non-viral oncogenic, luminescence, dose response (AID 1934)", "type": "functional", "details": "Homo sapiens"}, "[14]": {"molecular_target": "T3, Heat shock factor protein 1 (Mus musculus, UniProt P38532)", "T3 sequence (P38532 whole entry)": "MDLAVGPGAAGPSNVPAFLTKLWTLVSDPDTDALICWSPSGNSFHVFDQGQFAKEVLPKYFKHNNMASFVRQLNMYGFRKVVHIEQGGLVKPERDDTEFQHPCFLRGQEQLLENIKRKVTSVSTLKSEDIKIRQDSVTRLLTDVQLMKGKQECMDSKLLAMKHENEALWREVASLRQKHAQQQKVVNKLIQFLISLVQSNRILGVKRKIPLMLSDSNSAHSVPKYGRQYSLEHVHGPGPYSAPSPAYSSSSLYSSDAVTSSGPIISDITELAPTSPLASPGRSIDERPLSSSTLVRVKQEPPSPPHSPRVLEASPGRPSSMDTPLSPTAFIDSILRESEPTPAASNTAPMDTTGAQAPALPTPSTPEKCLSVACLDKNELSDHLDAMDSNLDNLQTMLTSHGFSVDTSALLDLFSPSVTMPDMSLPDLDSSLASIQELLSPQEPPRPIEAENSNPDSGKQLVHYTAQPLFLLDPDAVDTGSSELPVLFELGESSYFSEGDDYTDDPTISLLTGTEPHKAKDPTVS", "test": "enhancement of HSF1-driven luciferase signal – cell-based, NIH3T3, luminescence, dose retest, confirmation (AID 435004);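 further: stress induced by proteasome inhibitor MG132 added 30 min after compound; actives raise luminescence as potentiators of the MG132 stress response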", "type": "functional"}, "cells [15]": {"test": "cells", "type": "functional, cell-based"}, "cells [16]": {"test": "cells", "type": "functional, cell-based", "remark": "listed apart in the source"}, "[17]": {"test": "blockers of HIV-1 ZM109 envelope-driven cell-cell fusion – HeLa effector, CEM target cells, luciferase, cherry-pick, dose response (AID 652058)", "type": "functional, cell-based"}, "[18]": {"molecular_target": "Eukaryotic translation initiation factor 4E (Mus musculus, UniProt P63073)", "sequence (P63073 whole entry)": "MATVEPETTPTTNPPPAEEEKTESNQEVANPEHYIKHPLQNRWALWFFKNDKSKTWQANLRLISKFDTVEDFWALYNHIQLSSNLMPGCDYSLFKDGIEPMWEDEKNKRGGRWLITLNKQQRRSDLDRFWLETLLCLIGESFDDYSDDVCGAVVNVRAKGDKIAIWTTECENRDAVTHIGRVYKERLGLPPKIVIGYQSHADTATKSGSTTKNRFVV", "test": "blockers of eIF4G binding by eIF4E – biochemical, TR-FRET, dose response (AID 855);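 further: potency for disrupting eIF4E binding to eIF4GI seen as loss of FRET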", "type": "functional"}, "[19]": {"test": "loss of viability in HepG2 cells – cell-based, CellTiter-Glo, cherry-picked, cytotoxicity control for Shn3 inhibitor project, dose response (AID 624134)", "type": "functional"}, "[20]": {"test": "reduction of Shn3 3'UTR-driven luciferase in osteoblasts – cell-based, Clone20 osteoblasts, firefly luciferase, cherry-picked, dose response (AID 624132)", "type": "functional"}, "[21]": {"test": "non-specific 3'UTR reporter inhibition in Clone20-Shn3RL – cell-based, Renilla luciferase, cherry-picked, counter-screen for Shn3 inhibitor project, dose response (AID 624133)", "type": "functional"}},
  "note": "Calls of active or inactive are those of the source.",
  "data": [
    {"smiles": "CC(=O)Nc1ccc(NC(=O)CSc2nnnn2C2CCCCC2)cc1", "values": [
      {"measurement": "IC50", "setting": "[1]", "result": "11.8 µM (inactive)"},
      {"measurement": "IC50", "setting": "[2]", "result": "35.9 µM (inactive)"},
      {"measurement": "IC50", "setting": "Steroidogenic factor 1", "result": "7.58 µM (active)"}
    ]},
    {"smiles": "O=C(Nc1cccc(-c2cn3ccccc3n2)c1)c1cc2ccccc2oc1=O", "values": [
      {"measurement": "IC50", "setting": "[3]", "result": "7.49 µM (active)"}
    ]},
    {"smiles": "O=C(Nc1cccc(-c2nn[nH]n2)c1)c1ccc(Br)s1", "values": [
      {"measurement": "AC50", "setting": "[4]", "result": "0.875 µM (active)"}
    ]},
    {"smiles": "CCn1c(=S)sc2c(=O)n(CC(=O)NC(C)CCc3ccccc3)c(C)nc21", "note": "(stereo unspecified)", "values": [
      {"measurement": "IC50", "setting": "Fatty acid synthase [5]", "result": "16.8 µM (active)"},
      {"measurement": "IC50", "setting": "Fatty acid synthase [6]", "result": "9.52 µM (active)"}
    ]},
    {"smiles": "CC(C)(C)CC(=O)Nc1nnc(C(F)(F)F)s1", "values": [
      {"measurement": "EC50", "setting": "[7]", "result": "> 160 µM (inactive)"},
      {"measurement": "EC50", "setting": "[8]", "result": "0.13 µM (active)"}
    ]},
    {"smiles": "C=CCn1c(O)c(N=NC(=S)Nc2ccc(OC)cc2)c2ccccc21", "values": [
      {"measurement": "EC50", "setting": "[7]", "result": "> 150 µM (inactive)"}
    ]},
    {"smiles": "CN(C)S(=O)(=O)c1ccc(C(=O)/C=C/c2cccnc2)cc1", "values": [
      {"measurement": "EC50", "setting": "BJ [9]", "result": "> 150 µM (inconclusive)"},
      {"measurement": "EC50", "setting": "BJ [10]", "result": "10.4 µM (active)"},
      {"measurement": "EC50", "setting": "BJ [11]", "result": "> 150 µM (not active)"},
      {"measurement": "CC50", "setting": "[12]", "result": "17.5 µM (active)"},
      {"measurement": "EC50", "setting": "[13]", "result": "10.4 µM (active)"}
    ]},
    {"smiles": "COc1ccc(-n2nc3c(N4CCC(C(=O)N5CCC(C)CC5)CC4)nnc(C)c3c2C)cc1", "values": [
      {"measurement": "EC50", "setting": "[7]", "result": "> 160 µM (inactive)"},
      {"measurement": "EC50", "setting": "[8]", "result": "> 38 µM (not active)"},
      {"measurement": "EC50", "setting": "[14]", "result": "> 260 µM (inactive)"}
    ]},
    {"smiles": "CCCn1c(SCC(=O)Nc2ccccc2CC)nnc1C(C)C", "values": [
      {"measurement": "EC50", "setting": "cells [15]", "result": "> 350 µM (not active)"},
      {"measurement": "EC50", "setting": "cells [16]", "result": "> 350 µM (not active)"}
    ]},
    {"smiles": "CCn1cc(C(=O)O)c(=O)c2cc(F)c(N3CCN(C(=S)NC(=O)c4ccc(F)cc4)CC3)cc21", "values": [
      {"measurement": "IC50", "setting": "[3]", "result": "11.7 µM (active)"}
    ]},
    {"smiles": "CCc1ccc(C(=O)CN2C(=O)NC(C)(c3ccc(C)cc3)C2=O)cc1", "note": "(stereo unspecified)", "values": [
      {"measurement": "AC50", "setting": "[17]", "result": "69 µM (active)"}
    ]},
    {"smiles": "CC1CCN(C(=O)c2ccc3c(Cl)c4c(nc3c2)CCCC4)CC1", "values": [
      {"measurement": "IC50", "setting": "Fatty acid synthase [5]", "result": "6.9 µM (active)"},
      {"measurement": "IC50", "setting": "Fatty acid synthase [6]", "result": "5.24 µM (active)"},
      {"measurement": "IC50", "setting": "[18]", "result": "50 µM (inactive)"}
    ]},
    {"smiles": "CC(C)Cn1c2c(c(O)c(C(=O)Nc3ccc(F)cc3)c1=O)CCCC2", "values": [
      {"measurement": "CC50", "setting": "[12]", "result": "> 40 µM (active)"}
    ]},
    {"smiles": "Nc1nc(CN2CCN(c3ccccn3)CC2)nc(Nc2ccc(F)cc2)n1", "values": [
      {"measurement": "EC50", "setting": "[7]", "result": "> 150 µM (inconclusive)"},
      {"measurement": "EC50", "setting": "[8]", "result": "> 38 µM (not active)"}
    ]},
    {"smiles": "CN(C)c1ccc(NC(=O)C2C3C=CC(C3)C2C(=O)O)cc1", "note": "(stereo unspecified)", "values": [
      {"measurement": "EC50", "setting": "[7]", "result": "> 160 µM (inactive)"},
      {"measurement": "EC50", "setting": "[8]", "result": "> 38 µM (not active)"}
    ]},
    {"smiles": "CCc1sc2nc(SCC(=O)Nc3cc(C)on3)n(-c3cccc(OC)c3)c(=O)c2c1C", "values": [
      {"measurement": "CC50", "setting": "[12]", "result": "36.3 µM (active)"}
    ]},
    {"smiles": "CCOC(=O)c1c(-c2ccccc2)oc2cc(CN(C)C)c(O)c(CN(C)C)c12", "values": [
      {"measurement": "EC50", "setting": "cells [15]", "result": "> 350 µM (not active)"},
      {"measurement": "AC50", "setting": "[19]", "result": "21.2 µM (active)"},
      {"measurement": "AC50", "setting": "[20]", "result": "7.81 µM (active)"},
      {"measurement": "AC50", "setting": "[21]", "result": "5.5 µM (active)"},
      {"measurement": "EC50", "setting": "cells [16]", "result": "28 µM (active)"}
    ]}
  ]
}
